Several values for one entry are separate records, joined by “and”; a condition that tells them apart may be missing. Equal entries are not always repeated.
What was measured:
[1] = system: Mouse Model of Chemotherapy-Induced POF; assay: Chemotherapy (cyclophosphamide)-induced premature ovarian failure; type: in vivo, C57BL/6J mice; details: for body weight / ovarian coefficient (ratio of ovarian weight to body weight) / ovarian weight: 30 mg/kg oral gavage, FIG. 67; for serum FSH level / serum E2 level / BDNF level in ovarian tissues: 30 mg/kg; for serum FSH level: FIG. 68; for serum E2 level: FIG. 69; for BDNF level in ovarian tissues: FIG. 70; for effect of TJ01-013 compared with I-14-1: b553: ovarian coefficient, b560: FSH concentration, serum E2 level and BDNF level
Procedure: Eight-week-old C57BL/6J mice (weighing about 20-25 g) were selected and adaptively fed for 7 d firstly, after which they were randomly divided into three groups according to their body weights, namely, the control group (Control, n=8), the model group (Cy, treated with the solvent 0.5% CMC-Na, n=8), and the TJ01-013 treatment group (Cy+TJ01-013, 30 mg/kg TJ01-013 by oral gavage, n=8). kg TJ01-013, n=8), I-14-1 treatment group (Cy+I-14-1, 30 mg/kg I-14-1 by oral gavage, n=8). The model group and the TJ01-013 treatment group received a single intraperitoneal injection of cyclophosphamide (75 mg/kg, 200-300 μl), and the control group received a single intraperitoneal injection of an equal volume of saline. Samples were collected after 12 days of administration, and body weights, ovary weights, and levels of the serum hormones E2 and FSH of the mice were measured.
The body weight and bilateral ovarian wet weight of each group of mice were weighed with an electronic balance and an analytical balance respectively, and the ovarian organ coefficient of each group was calculated according to the body weight of mice (g) and bilateral ovarian wet weight (mg). The formula is: […]
After the experiment reached the end point, blood was collected from the orbit, and the blood was centrifuged at 12,000 g for 10 min after standing still at room temperature for 45 min, and the supernatant (serum) was taken, and the levels of E2, FSH and BDNF in serum were detected by ELISA.
The mice were euthanized after reaching the end point of the experiment, and the levels of BDNF in the ovarian tissues were assayed by ELISA after the ovaries were extracted and ground.

[2] = system: autoimmune myocarditis model rats; assay: Autoimmune myocarditis model; type: in vivo, Lewis rats; details: for left ventricular end-diastolic transverse diameter LVIDd / left ventricular end-systolic transverse diameter LVIDs / ejection fraction EF / short-axis fractional shortening FS / serum CK-MB level: 30 mg/kg oral gavage, 4 weeks; for left ventricular end-diastolic transverse diameter LVIDd / left ventricular end-systolic transverse diameter LVIDs: FIG. 79; for ejection fraction EF / short-axis fractional shortening FS: FIG. 80; for serum CK-MB level: FIG. 81
Procedure: 8-week-old male SPF-grade Lewis rats were adaptively fed for one week to construct an autoimmune myocarditis model. The rats were divided into two groups, normal control group (normal rats, routine feeding) and model group, in which porcine cardiac myosin used to induce autoimmunity and Freund's adjuvant were fully mixed in 1:1 in the model group (purified porcine cardiac myosin was dissolved in PBS solution, with its concentration being controlled to 10 g/L, under sterile conditions the solution was mixed with the complete Freund's adjuvant CFA in 1:1 equal volume and emulsified completely, so that it became a homogeneous emulsion), a total of 0.2 ml of the immunization mixture was injected subcutaneously into multiple points such as the bilateral groin and axilla of the rats. Normal control rats were immunized with myosin-free PBS and CFA emulsion. From the 14th day after immunization, the model groups were administrated in groups, and were divided into three groups: model group (model, treated with 0.5% CMC-Na by oral gavage, n=8) TJ01-013 treatment group (TJ01-013, 30 mg/kg TJ01-013 by oral gavage, n=8), I-14-1 treatment group (I-14-1, 30 mg/kg I-14-1 by oral gavage, n=8). A normal control group (Control, treated with 0.5% CMC-Na by oral gavage, n=8) was further provided, and the administration of the drug was started immediately after grouping, and the drug was administered for a total of 4 weeks. At the end of the administration, rats were weighed, anesthetized and blood was taken, and serum was extracted and the corresponding physiological indexes were detected. After euthanasia, the rats' hearts were stripped and weighed, and the organ coefficients of the hearts were calculated.
After the end of administration, rats were weighed, anesthetized with 10% chloral hydrate via intraperitoneal injection, and then subjected to echocardiography in the supine and slightly left lateral position after chest hair removal, and the average value was taken from 3 repetitions. The detection indexes include left ventricular end-diastolic transverse diameter LVIDd, left ventricular end-systolic transverse diameter LVIDs, short-axis fractional shortening FS, and ejection fraction EF.

[3] = system: rats of adenine induced kidney injury model; assay: Adenine-induced kidney injury; type: in vivo, SD rats
Procedure: Adenine-induced kidney injury is an animal model of chronic kidney injury. The model was prepared as follows: 1500 mg/kg of potassium oxonate and 50 mg/kg of adenine were ground and suspended in 0.5% carboxymethylcellulose sodium (CMC-Na) solution and gavaged once a day in a volume of 10 mL/kg for 180-200 g male SD rats, and an equal dose of 0.5% CMC-Na solution was gavaged for the sham group. After 1 week of modeling, serum creatinine (Cr) was measured weekly to determine whether the model was successful or not; in this experiment, there was a statistically significant difference in serum creatinine elevation on the 21st day of modeling compared with that of the sham group, at this time, administration in group was initiated, and the shock modeling with 1500 mg/kg of potassium oxonate and 50 mg/kg of adenine was continued daily along with the administration. The test was divided into three groups according to the serum creatinine level, sham operation group (sham group, without adenine modeling and vehicle treatment by oral gavage), control group (model control group, vehicle treatment by oral gavage), and 15 mg/kg group (15 mg/kg compound I-1 by oral gavage), and the dosage was once a day in the volume of 10 ml/kg for 21 consecutive days. […] At the end of the administration, blood was collected from the heart, and the blood was centrifuged at 12000 g for 10 minutes at 4° C. after standing at room temperature for 45 minutes, and the supernatant (serum) was extracted to measure the levels of creatinine and uric acid in the serum. After euthanasia of rats at endpoint of test, rats were dissected and kidneys were taken, of which 4 kidneys were fixed with 4% paraformaldehyde for 48 h, embedded in paraffin, sectioned, and HE stained, the specific staining operation was as described above. The left kidney tissue was taken and ground, and the inflammatory factors IL-10 and TNFα were detected by Elisa method.

## O=C(O)C[S+]([O-])c1cc(NS(=O)(=O)c2ccc(Br)cc2)c2ccccc2c1O (stereo not drawn) [I-1]
[1]
  body weight: no significant change
  ovarian coefficient (ratio of ovarian weight to body weight): significantly elevated
  ovarian weight: significantly elevated
  serum FSH level: significantly decreased
  serum E2 level: increased significantly
  BDNF level in ovarian tissues: increased significantly
[1]; listed as TJ01-013
  effect of TJ01-013 compared with I-14-1: more effective
[1]; listed as TJ0113
  effect of TJ01-013 compared with I-14-1: better
[2]
  left ventricular end-diastolic transverse diameter LVIDd: reduce
  left ventricular end-systolic transverse diameter LVIDs: reduce
  ejection fraction EF: increase
  short-axis fractional shortening FS: increase
  serum CK-MB level: decrease
[2]; LVIDd/LVIDs, EF/FS, CK-MB
  treatment of TJ01-013 compared with I-14-1: significantly better
[3]; 15 mg/kg oral gavage, 21 days, FIG. 9
  body weight: no significant change
[3]; 15 mg/kg, 21 days, FIG. 12
  TNF-α level in kidney tissues: significantly decreased
[3]; 15 mg/kg, 21 days, FIG. 13
  renal histopathology (HE staining): improved the histopathology of adenine-induced renal injury to some extent
[3]; 15 mg/kg, 21 days, P<0.05, FIG. 11
  serum urea nitrogen level: significantly decreased
[3]; 15 mg/kg, after 21 days, P<0.05, FIG. 10
  Serum creatinine decreased by: 20.7%
[3]; Degree of lesion + (mild lesions), 15 mg/kg
  Renal lesion (number of kidneys, n = 4): 1/4 and 1
[3]; Degree of lesion ++ (moderate lesions), 15 mg/kg
  Renal lesion (number of kidneys, n = 4): 3/4 and 3
[3]; Degree of lesion +++ (severe lesions), 15 mg/kg
  Renal lesion (number of kidneys, n = 4): 0
[3]; Degree of lesion ± (slight lesions), 15 mg/kg
  Renal lesion (number of kidneys, n = 4): 0
[3]; Degree of lesion − (no lesions), 15 mg/kg
  Renal lesion (number of kidneys, n = 4): 0

## O=C(O)C[S+]([O-])c1cc(NS(=O)(=O)c2ccc(C(F)(F)F)cc2)c2ccccc2c1O (stereo not drawn) [I-14-1]
[1]
  body weight: no significant change
  ovarian coefficient (ratio of ovarian weight to body weight): significantly elevated
  ovarian weight: significantly elevated
  serum FSH level: significantly decreased
  serum E2 level: increased significantly
  BDNF level in ovarian tissues: increased significantly
[2]
  left ventricular end-diastolic transverse diameter LVIDd: reduce
  left ventricular end-systolic transverse diameter LVIDs: reduce
  ejection fraction EF: increase
  short-axis fractional shortening FS: increase
  serum CK-MB level: decrease

## O=C(O)CSc1cc(NS(=O)(=O)c2ccc(Br)cc2)c2ccccc2c1O [UMI-77, reference compound]
[3]; UMI-77 vs I-1
  treatment of adenine-induced renal injury compared with I-1: less effective

Source: patent US20260027073A1, “USE OF SMALL-MOLECULE COMPOUND HAVING NAPHTHYLAMINE STRUCTURE” (HANGZHOU PHECDAMED CO., LTD., priority 2023, published 2026)
